Source: publication PMC9455918, “Quinolizidines as Novel SARS-CoV-2 Entry Inhibitors” (International Journal of Molecular Sciences, 2022)
Values joined by “and” are separate entries in the source; they are usually repeats but may differ in a detail not shown here. Identical values can stand only once. Like-named read-outs stand apart in the source and are kept apart here.

Key:
[1] = system: D614G spike-pseudotyped virus; assay type: cell-based, SARS-CoV-2
[2] = system: Omicron BA.1 spike-pseudotyped virus; assay: microbe, parasite or virus in culture; assay type: cell-based, SARS-CoV-2
[3] = 293T-ACE2 cells, 3 days, luciferase reporter, mean ± SD of three tests, Inactive = CC50/IC50 ratio < 5

Compound	IC50 [1]	other results
C1=C2CCCN(CCCCCNCc3ccccc3)C2C2CC1C1CCCCN1C2 (centres unmarked) [Compound 4]	860 ± 1500 nM	IC50, D614G spike-pseudotyped virus [1, 3]: sub-µM potency
Fc1ccc(CNCCCCN2CCCC3=CC4CC(CN5CCCCC45)C32)cc1 (centres unmarked) [Compound 9]	610 ± 180 nM	
C1=C2CCCN[C@H]2[C@@H]2C[C@H]1[C@H]1CCCCN1C2 [Aloperine, aloperine, reference compound]	11500 ± 2300 nM	
CC(C)(C)c1ccc(C(=O)NCCCCCCN2CCCC3=CC4CC(CN5CCCCC45)C32)cc1 (centres unmarked) [Compound 7]	3700 ± 870 nM	
O=C(Cc1ccc(S(=O)(=O)C(F)(F)F)cc1)NCCCCN1CCCC2=CC3CC(CN4CCCCC34)C21 (centres unmarked) [Compound 3]	3800 ± 680 nM	
O=C(NCCCCCCN1CCCC2CC3CC(CN4CCCCC34)C21)c1c(F)cc(Br)cc1F (centres unmarked) [Compound 1]	4700 ± 760 nM	
CCOC(=O)[C@H]1O[C@@H]1C(=O)N[C@@H](CC(C)C)C(=O)NCCC(C)C [Compound E64D, E64D, reference compound]		IC50 [1, 3]: 480 ± 110 nM; IC50 ([2]; read-out: IC50, Omicron BA.1 spike-pseudotyped virus): 360 ± 76 nM
CCN(CC)CCCC(C)Nc1ccnc2cc(Cl)ccc12 (centres unmarked) [Chloroquine diphosphate, reference compound]	2300 ± 3600 nM	
O=C(NCCCCCCCC(=O)N1CCCC2=CC3CC(CN4CCCCC34)C21)c1ccc(OC(F)(F)F)cc1 (centres unmarked) [Compound 8]	17500 ± 2300 nM	IC50, D614G spike-pseudotyped virus [1, 3]: weak inhibitor
COc1ccc(C(=O)NCCCCN2CCCC3=CC4CC(CN5CCCCC45)C32)cc1 (centres unmarked) [Compound 6]	11900 ± 2100 nM	
C1=C2CCCN(CCCCNCc3ccccc3)C2C2CC1C1CCCCN1C2 (centres unmarked) [Compound 5]	500 nM and 530 nM	Fold more potent than aloperine against D614G spike-pseudotyped virus [1]: approximately 22 fold; Fold more potent than chloroquine against D614G spike-pseudotyped virus [1]: ~5 fold; IC50, D614G spike-pseudotyped virus [1, 3]: sub-µM potency; Fold less sensitive, Omicron variants [2]: approximately 1.5 fold; IC50 ([2]; Severe acute respiratory syndrome coronavirus 2, 293T/ACE2, read-out: IC50, Omicron BA.1 spike-pseudotyped virus): 760 ± 220 nM
O=C(NCCN1CCCC2=CC3CC(CN4CCCCC34)C21)c1ccccc1F (centres unmarked) [Compound 2]		IC50, D614G spike-pseudotyped virus [1]: Inactive ^8
